Data: ChEMBL document CHEMBL1201862, “PubChem BioAssay data set” (2004)
Calls of active or inactive are those of the source.

Legend:
[1] = Counterscreen for AddAB inhibitors: absorbance-based bacterial cell-based high throughput dose response assay for inhibitors of bacterial viability. [Related pubchem assays (depositor defined):AID435030, AID449728, AID449731, AID488942, AID488955, AID488956]; format: functional
Exodeoxyribonuclease V = biological target: T1, Exodeoxyribonuclease V (Escherichia coli (strain K12), UniProt P04993+P07648+P08394); test: E. coli RecBCD inhibitors, dose response, counter-screen for AddAB inhibitor project, absorbance, V66 E. coli, mutant T4 phage (AID 492957); format: functional, cell-based, Escherichia coli str. K-12 substr. MG1655
T1 sequence (P04993 whole entry): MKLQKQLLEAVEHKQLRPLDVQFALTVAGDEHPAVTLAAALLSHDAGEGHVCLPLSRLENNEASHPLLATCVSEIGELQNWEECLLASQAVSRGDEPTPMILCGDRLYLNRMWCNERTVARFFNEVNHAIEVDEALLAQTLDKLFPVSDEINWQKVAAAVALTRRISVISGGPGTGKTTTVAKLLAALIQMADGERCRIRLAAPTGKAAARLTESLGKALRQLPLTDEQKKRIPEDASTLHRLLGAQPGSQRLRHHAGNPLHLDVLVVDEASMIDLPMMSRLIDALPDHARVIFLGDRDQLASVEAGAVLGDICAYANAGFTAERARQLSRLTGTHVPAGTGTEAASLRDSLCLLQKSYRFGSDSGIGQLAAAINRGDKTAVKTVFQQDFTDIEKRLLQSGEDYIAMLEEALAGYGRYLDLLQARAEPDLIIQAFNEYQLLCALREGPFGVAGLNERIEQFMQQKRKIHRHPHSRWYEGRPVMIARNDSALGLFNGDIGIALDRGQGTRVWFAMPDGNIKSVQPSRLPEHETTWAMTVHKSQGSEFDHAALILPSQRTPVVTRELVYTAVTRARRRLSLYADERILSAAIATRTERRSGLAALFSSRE
T1 sequence (P07648 whole entry): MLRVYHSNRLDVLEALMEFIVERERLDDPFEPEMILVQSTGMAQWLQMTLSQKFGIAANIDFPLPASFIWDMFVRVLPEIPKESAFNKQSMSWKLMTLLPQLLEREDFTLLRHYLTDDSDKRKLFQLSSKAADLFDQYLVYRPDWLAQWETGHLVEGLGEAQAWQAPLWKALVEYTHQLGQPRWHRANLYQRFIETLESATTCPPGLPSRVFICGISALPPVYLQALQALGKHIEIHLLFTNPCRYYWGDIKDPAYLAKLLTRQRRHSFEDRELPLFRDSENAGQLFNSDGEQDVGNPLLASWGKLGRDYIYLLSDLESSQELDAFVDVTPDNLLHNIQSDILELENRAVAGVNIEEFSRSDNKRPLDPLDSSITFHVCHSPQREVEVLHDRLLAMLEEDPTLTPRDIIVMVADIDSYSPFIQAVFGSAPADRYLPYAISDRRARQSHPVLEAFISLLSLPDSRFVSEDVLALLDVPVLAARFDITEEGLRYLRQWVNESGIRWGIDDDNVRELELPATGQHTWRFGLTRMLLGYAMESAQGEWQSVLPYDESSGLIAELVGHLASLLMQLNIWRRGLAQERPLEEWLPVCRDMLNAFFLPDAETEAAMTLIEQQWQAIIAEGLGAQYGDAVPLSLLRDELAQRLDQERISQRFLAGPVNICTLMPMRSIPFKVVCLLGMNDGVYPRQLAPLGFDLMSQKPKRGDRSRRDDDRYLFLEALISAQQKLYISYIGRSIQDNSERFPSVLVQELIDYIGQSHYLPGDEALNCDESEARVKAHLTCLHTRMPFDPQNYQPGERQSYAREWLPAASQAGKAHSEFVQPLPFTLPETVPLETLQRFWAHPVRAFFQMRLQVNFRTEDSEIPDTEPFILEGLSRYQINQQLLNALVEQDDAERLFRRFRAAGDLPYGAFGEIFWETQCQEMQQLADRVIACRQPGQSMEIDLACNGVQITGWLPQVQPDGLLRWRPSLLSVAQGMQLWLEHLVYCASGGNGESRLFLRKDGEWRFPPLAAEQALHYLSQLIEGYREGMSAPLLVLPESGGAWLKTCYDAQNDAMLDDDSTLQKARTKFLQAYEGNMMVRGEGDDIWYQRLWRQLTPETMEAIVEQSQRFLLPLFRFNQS
T1 sequence (P08394 whole entry): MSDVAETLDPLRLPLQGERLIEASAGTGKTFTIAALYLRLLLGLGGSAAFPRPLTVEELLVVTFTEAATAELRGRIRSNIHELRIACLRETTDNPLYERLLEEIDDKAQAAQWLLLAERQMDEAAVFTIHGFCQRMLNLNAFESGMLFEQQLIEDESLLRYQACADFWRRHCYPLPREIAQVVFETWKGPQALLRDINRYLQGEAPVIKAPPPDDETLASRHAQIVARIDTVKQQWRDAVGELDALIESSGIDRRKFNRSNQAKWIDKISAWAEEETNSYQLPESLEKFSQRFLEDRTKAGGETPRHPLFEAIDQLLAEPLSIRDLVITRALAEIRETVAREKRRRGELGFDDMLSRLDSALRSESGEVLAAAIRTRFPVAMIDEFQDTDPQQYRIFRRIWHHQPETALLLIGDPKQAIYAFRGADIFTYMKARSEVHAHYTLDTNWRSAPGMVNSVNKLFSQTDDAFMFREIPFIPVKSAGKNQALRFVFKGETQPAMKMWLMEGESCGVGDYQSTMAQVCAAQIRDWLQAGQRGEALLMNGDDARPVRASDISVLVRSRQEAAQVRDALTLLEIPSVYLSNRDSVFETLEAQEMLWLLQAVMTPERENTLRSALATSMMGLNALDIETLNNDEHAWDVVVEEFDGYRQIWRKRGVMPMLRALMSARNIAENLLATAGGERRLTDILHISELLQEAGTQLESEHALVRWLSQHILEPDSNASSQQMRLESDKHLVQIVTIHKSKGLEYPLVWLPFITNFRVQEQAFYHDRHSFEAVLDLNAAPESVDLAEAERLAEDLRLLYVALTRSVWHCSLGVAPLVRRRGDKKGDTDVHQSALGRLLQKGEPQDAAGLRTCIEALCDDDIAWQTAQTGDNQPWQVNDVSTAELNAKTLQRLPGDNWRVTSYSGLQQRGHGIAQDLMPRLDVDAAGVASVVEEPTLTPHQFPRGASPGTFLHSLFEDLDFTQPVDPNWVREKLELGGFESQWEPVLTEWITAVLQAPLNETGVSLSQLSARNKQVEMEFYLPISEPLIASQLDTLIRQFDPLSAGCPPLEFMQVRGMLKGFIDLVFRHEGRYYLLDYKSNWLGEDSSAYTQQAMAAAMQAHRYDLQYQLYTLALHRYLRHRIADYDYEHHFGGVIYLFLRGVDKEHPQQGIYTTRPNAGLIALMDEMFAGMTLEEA

HEK293 [2] = test: cells; format: functional, cell-based; details: Homo sapiens
[3] = HEK293 cell cytotoxicity, dose response, cytotoxicity control, plate reader, cherry-picked samples (AID 743446); format: functional, cell-based
[4] = inhibitors of intracellular T. cruzi replication, confirmation, NIH3T3 host cells, beta-gal luminescence (AID 2044); format: functional, cell-based;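 further: intracellular parasites grown in NIH/3T3 mouse fibroblasts as host cells; luminescent beta-galactosidase reporter signal from transgenic T. cruzi replicating inside host cells; inhibitors lower the luminescence signal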
HEK293 [5] = test: NOD1 signaling inhibitors, primary screen, cell-based, luminescence, uHTS (AID 1578); format: functional; details: Homo sapiens
[6] = cytotoxicity toward NIH3T3 fibroblasts, dose response, counter-screen, cell-based, ATP luminescence, mouse fibroblasts (AID 2010); format: functional;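 further: cells exposed to compound for about 90 hours before reading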
[7] = MC4R antagonists, dose response, counter-screen for LGR2 antagonist project, cell-based, plate reader, cherry pick (AID 743444); format: functional;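 further: transfected HEK 293 cells stimulated with alpha-MSH peptide; potency of inhibitors of the alpha-MSH evoked signal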
Streptokinase A = biological target: T2, Streptokinase A (Streptococcus pyogenes serotype M1, UniProt P10520); test: S. pyogenes streptokinase expression inhibitors, potency, dose response, plasminogen activation absorbance, OD405 (AID 1914); format: functional, Streptococcus pyogenes M1 GAS;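 further: secreted streptokinase activity via plasminogen activation per viability signal from cell pellet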
T2 sequence (P10520 whole entry): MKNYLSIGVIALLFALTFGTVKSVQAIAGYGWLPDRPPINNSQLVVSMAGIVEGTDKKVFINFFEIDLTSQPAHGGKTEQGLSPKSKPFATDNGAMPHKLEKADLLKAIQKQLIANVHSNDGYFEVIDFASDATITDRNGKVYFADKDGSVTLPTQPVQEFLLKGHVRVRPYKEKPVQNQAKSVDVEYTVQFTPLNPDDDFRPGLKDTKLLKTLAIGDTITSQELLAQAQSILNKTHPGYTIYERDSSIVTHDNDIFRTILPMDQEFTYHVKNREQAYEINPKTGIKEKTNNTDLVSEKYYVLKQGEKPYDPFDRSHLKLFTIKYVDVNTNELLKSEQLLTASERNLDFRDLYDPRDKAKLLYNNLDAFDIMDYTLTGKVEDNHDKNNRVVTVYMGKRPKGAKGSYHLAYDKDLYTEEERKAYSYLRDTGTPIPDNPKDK

[8] = biological target: Nucleotide-binding oligomerization domain-containing protein 2 (Homo sapiens, UniProt Q9HC29); test: NOD2 signaling inhibitors, cell-based, luminescence, uHTS, HEK293 (AID 1566); format: functional
Sequence of Nucleotide-binding oligomerization domain-containing protein 2 (Q9HC29 whole entry, the tested form may be a part): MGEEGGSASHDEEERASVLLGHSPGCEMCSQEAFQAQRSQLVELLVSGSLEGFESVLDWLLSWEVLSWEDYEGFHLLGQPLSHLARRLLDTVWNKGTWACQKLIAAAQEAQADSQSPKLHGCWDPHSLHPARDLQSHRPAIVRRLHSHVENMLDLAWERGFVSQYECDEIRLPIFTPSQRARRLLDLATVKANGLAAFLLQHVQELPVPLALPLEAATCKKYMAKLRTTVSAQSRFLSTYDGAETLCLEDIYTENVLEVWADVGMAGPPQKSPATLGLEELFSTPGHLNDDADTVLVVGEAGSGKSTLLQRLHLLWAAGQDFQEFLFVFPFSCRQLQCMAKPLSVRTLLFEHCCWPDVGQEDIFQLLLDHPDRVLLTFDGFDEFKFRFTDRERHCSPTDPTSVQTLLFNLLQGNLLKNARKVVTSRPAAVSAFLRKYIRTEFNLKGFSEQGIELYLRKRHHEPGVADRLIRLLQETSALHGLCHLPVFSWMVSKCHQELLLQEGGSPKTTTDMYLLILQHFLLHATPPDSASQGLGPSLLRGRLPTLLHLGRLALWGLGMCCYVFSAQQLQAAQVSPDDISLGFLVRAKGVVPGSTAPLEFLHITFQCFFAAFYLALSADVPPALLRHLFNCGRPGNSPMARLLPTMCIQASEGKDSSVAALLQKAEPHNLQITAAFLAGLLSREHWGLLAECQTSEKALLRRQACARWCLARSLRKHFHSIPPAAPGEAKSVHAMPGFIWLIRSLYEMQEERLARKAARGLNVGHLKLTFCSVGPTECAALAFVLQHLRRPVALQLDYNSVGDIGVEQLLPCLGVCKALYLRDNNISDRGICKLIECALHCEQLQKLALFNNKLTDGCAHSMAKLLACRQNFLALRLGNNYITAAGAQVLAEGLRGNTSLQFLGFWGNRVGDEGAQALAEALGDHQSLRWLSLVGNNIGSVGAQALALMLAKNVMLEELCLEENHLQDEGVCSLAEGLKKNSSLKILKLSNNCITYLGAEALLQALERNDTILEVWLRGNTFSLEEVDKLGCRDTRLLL

[9] = A549 cell cytotoxicity, dose response, cytotoxicity control, plate reader, cherry-pick, antagonist series (AID 743412); format: functional, cell-based
Vero = test: cells; format: functional; details: Chlorocebus sabaeus
[10] = LGR2 antagonists, dose response, cell-based, HEK293, CRE-luciferase reporter, cherry pick, set 2 (AID 743343); format: functional;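 further: transfected cells were stimulated with diluted bursicon conditioned medium after compound addition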
Streptococcus = test: Group A Streptococcus viability loss, dose response, counter-screen for streptokinase expression inhibitor project, luminescence, BacTiterGlo (AID 1915); format: functional, organism-based;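 further: potency for reduction of bacterial viability or growth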
HEK293 [11] = test: cells; format: functional, cell-based; details: Homo sapiens; remark: listed apart in the source
[12] = HepG2 cell cytotoxicity, dose response, cytotoxicity control, plate reader, cherry-pick, antagonist series (AID 743416); format: functional, cell-based
[13] = test system: Streptococcus sp. 'group A'; test: growth inhibition of control SK(-) GAS strain, dose response, counter-screen for streptokinase expression inhibitor project, luminescence, kanamycin, BacTiterGlo, confirmation (AID 1900); format: functional, organism-based
HEK293 [14] = test: cells; format: functional, cell-based; details: Homo sapiens; remark: listed apart in the source
HEK293 [15] = test: NOD2 signaling inhibitors in MDP-stimulated cells, cell-based, uHTS, luminescence (AID 2001); format: functional; details: Homo sapiens

In the case of CCOc1cccc(/C=N/NC(=O)c2cc(-c3cccn3C)[nH]n2)c1O, the IC50 [1] is reported as > 119 µM (inactive) and the IC50 (Exodeoxyribonuclease V) is reported as > 119 µM (inactive).
In the case of CC(=O)c1c(C)[nH]c(C(=O)Nc2nc(-c3ccc(-c4ccccc4)cc3)cs2)c1C, the IC50 (HEK293 [2]) is reported as 4.41 µM (active), the AC50 [3] is reported as 17.9 µM (active) and the EC50 [4] is reported as 0.876 µM (active). The EC50 (HEK293 [5]) was 3.76 µM (active), the EC50 [6] was > 60 µM (not active) and the AC50 [7] was 20 µM (active). For the same molecule, the EC50 (Streptokinase A) was > 150 µM (not active), the EC50 [8] was 14.1 µM (active) and the AC50 [9] was 17.6 µM (active). For the same molecule, the CC50 (Vero) was 21.1 µM (active), the AC50 [10] was 40.2 µM (active) and the EC50 (Streptococcus) was 16.7 µM (active). The IC50 (HEK293 [11]) was 11.2 µM (active), the AC50 [12] was 23.5 µM (active) and the EC50 [13] was 4.48 µM (active). For the same molecule, the IC50 (HEK293 [14]) was 18.2 µM (active) and the IC50 (HEK293 [15]) was 4.86 µM (inactive).
